Assay results reported in BindingDB's records for patent US11760761 (Aligos Therapeutics, 2023).

target: Programmed cell death 1 ligand/protein 1 (Homo sapiens, UniProt Q9NZQ7); test: PDL1/PD1 Binding Assay
Description: Compounds to be tested were serially diluted in DMSO, and further diluted in assay buffer (25 mM Hepes pH 7.4, 150 mM NaCl, 0.005% Tween 20, BSA 0.01%). Diluted compounds were added to the wells with final concentration of DMSO at 1%. PDL1-6×His protein was added to the wells, mixed well with compound. The plates were incubated for 30 min at room temperature. PD1-Fc-Avi-Biotin protein was added to the wells. Final concentration of PDL1 and PD1 protein is 0.3 nM and 2.5 nM, respectively. After a binding time of 30 min at room temperature, Anti-6×His Acceptor beads (final concentration 20 ug/ml) were added to the wells, and the incubation continued for 1 h. Streptavidin Donor beads (final concentration 20 ug/mL) were added at reduced light. The plates were sealed with foil and incubated in the dark for additional 1 h or overnight before reading on an Envision reader.

Sequence of Programmed cell death 1 ligand/protein 1 (Q9NZQ7 whole entry): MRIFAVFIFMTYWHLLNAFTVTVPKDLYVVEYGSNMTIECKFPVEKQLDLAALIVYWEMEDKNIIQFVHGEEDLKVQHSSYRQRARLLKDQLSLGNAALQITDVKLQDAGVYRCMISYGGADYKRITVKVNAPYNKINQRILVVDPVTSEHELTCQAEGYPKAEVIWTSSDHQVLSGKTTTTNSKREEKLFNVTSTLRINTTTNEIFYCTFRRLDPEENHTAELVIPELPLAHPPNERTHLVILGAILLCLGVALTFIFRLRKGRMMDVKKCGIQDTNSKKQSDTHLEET
Sequence of Programmed cell death 1 ligand/protein 1 (Q15116 whole entry, further chain): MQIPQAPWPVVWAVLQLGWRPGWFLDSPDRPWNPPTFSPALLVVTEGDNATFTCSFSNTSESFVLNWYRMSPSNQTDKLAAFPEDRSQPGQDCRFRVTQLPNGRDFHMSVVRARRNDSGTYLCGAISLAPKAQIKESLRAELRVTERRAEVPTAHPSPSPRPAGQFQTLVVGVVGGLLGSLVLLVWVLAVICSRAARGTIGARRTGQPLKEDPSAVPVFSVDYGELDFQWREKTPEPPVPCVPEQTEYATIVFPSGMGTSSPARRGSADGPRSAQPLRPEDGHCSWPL

Question: Which IC50 does the source give for `COc1cc(-c2cccc(-c3cccc(-c4cnc(CN5CC6(CCC(=O)N6)C5)c(OC)n4)c3Cl)c2Cl)cc2c1[C@H](NCC(=O)O)CC2` (single isomer, unassigned) [US11760761, Compound B-2] here?
Answer: < 10 nM

Question: With `COc1cc(-c2cccc(-c3cccc(-c4cnc(CN5CC6(CCC(=O)N6)C5)c(OC)n4)c3Cl)c2Cl)cc2c1[C@@H](NCC(=O)O)CC2` [US11760761, Compound B-1] as the compound, how does the IC50 read?
Answer: < 10 nM

Question: How did the IC50 turn out when `COc1nc(-c2cccc(-c3cccc(-c4cc5c(c(OC)n4)[C@@H](NC[C@@H]4CCC(=O)N4)CC5)c3Cl)c2Cl)cnc1CN1CC2(CCC(=O)N2)C1` [US11760761, Compound C-1] was run?
Answer: < 10 nM

Question: With `COc1nc(-c2cccc(-c3cccc(-c4cc5c(c(OC)n4)[C@@H](NC[C@@H]4CCC(=O)N4)CC5)c3Cl)c2Cl)cnc1CN1CC2(C1)CN(C(C)=O)C2` [US11760761, Compound D-1] as the compound, how does the IC50 read?
Answer: < 10 nM

Question: With `COc1nc(-c2cccc(-c3cccc(-c4cc5c(c(OC)n4)[C@@H](NC[C@@H]4CCC(=O)N4)CC5)c3Cl)c2Cl)ccc1CNC[C@@H]1CCC(=O)N1` [US11760761, Compound E-1] as the compound, how does the IC50 read?
Answer: < 10 nM

Question: With `COc1nc(-c2cccc(-c3cccc(-c4cc5c(c(OC)n4)[C@@H](NC[C@@H]4CCC(=O)N4)CC5)c3Cl)c2Cl)cc(C)c1CN1CC2(C1)CN(C(C)=O)C2` [US11760761, Compound E-2] as the compound, how does the IC50 read?
Answer: < 10 nM

Question: With `COc1nc(-c2cccc(-c3cccc(-c4cc5c(c(OC)n4)[C@H](NC[C@@H]4CCC(=O)N4)CO5)c3Cl)c2Cl)ccc1CNC[C@@H]1CCC(=O)N1` [US11760761, Compound E-6] as the compound, how does the IC50 read?
Answer: < 10 nM

Question: `COc1nc(-c2cccc(-c3cccc(-c4cc5c(c(OC)n4)[C@H](NC[C@@H]4CCC(=O)N4)CO5)c3Cl)c2Cl)ccc1CN1CC(OC)C1` [US11760761, Compound E-7] was tested. Which IC50 did it give?
Answer: < 10 nM

Question: For `COc1nc(-c2cccc(-c3cccc(-c4cc5c(c(OC)n4)C(N4CCC[C@@H](C(=O)O)C4)CC5)c3Cl)c2Cl)cnc1CN1CC(O)C1` (stereo not given in full) [US11760761, Compound F-1], which IC50 is on record?
Answer: < 10 nM

Question: For `CCOC(=O)C1CN([C@H]2CCc3cc(-c4cccc(-c5cccc(-c6cnc(CN7CC(O)C7)c(OC)n6)c5Cl)c4Cl)nc(OC)c32)C1` [US11760761, Compound G-1], which IC50 is on record?
Answer: < 10 nM

Question: Which IC50 does the source give for `COc1nc(-c2cccc(-c3cccc(-c4cc5c(c(OC)n4)[C@@H](N4CC(C(=O)O)C4)CC5)c3Cl)c2Cl)cnc1CN1CC(O)C1` [US11760761, Compound H-1] here?
Answer: < 10 nM

Question: With `CCOC(=O)CN1CCc2c(cc(-c3cccc(-c4cccc(-c5cnc(CN6CC(O)C6)c(OC)n5)c4Cl)c3Cl)nc2OC)C1` [US11760761, Compound I-1] as the compound, how does the IC50 read?
Answer: < 10 nM

Question: Which IC50 does the source give for `COc1nc(-c2cccc(-c3cccc(-c4cc5c(c(OC)n4)CCN(CC(=O)O)C5)c3Cl)c2Cl)cnc1CN1CC(O)C1` [US11760761, Compound J-1] here?
Answer: < 10 nM

Question: For `COc1nc(-c2cccc(-c3cccc(-c4cc5c(c(OC)n4)CCN(C[C@@H]4CCC(=O)N4)C5)c3Cl)c2Cl)cnc1CN1CC2(CCC(=O)N2)C1` [US11760761, Compound K-1], which IC50 is on record?
Answer: < 10 nM

Question: `COCCN1CCc2c(cc(-c3cccc(-c4cccc(-c5cnc(CN6CC7(CCC(=O)N7)C6)c(OC)n5)c4Cl)c3Cl)nc2OC)C1` [US11760761, Compound K-2] was tested. Which IC50 did it give?
Answer: < 10 nM
